Target: T1, human microsomes containing CYP3A4 (Homo sapiens, UniProt P08684)
T1 construct: human microsomes containing CYP3A4; from tissue
Assay: Protection of lopinavir from metabolism by human microsomes containing CYP3A4
Assay type: biochemical
Details: unmetabolized lopinavir after incubation with human microsomes containing CYP3A4; for % LPV Remaining (0.4 μM): compound at 0.4 μM; for % LPV Remaining (4 μM): compound at 4 μM
Protocol: The pharmacokinetics boosting effects of the compounds of the present invention were evaluated by measuring the compounds' protective effects on the metabolism of lopinavir, an HIV protease inhibitor. Lopinavir were mixed with human microsomes containing CYP3A4 in the presence of a compound of the invention. […] Significant pharmacokinetics boosting effects were also observed for some compounds at 0.4 μM (“% LPV Remaining (0.4 μM)”).

T1 sequence (P08684 whole entry): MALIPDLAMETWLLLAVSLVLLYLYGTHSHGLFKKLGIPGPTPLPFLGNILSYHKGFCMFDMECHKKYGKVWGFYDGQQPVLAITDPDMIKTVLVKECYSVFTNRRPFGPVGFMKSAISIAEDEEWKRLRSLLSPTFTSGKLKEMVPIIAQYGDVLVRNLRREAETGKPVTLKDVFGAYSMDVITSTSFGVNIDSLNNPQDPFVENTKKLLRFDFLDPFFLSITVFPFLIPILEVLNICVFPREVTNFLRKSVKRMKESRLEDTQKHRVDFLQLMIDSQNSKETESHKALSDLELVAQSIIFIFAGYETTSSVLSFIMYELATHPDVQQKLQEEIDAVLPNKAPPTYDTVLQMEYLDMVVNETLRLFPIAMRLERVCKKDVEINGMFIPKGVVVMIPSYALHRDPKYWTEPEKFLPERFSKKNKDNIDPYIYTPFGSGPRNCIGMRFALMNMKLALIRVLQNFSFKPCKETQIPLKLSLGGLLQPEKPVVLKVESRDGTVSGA

SMILES | % LPV Remaining (0.4 μM) [%] | % LPV Remaining (4 μM) [%]
CC(C)CN(CC(C)C)C(=O)[C@H](Cc1ccccc1)NC(=O)OCc1cncs1 [N,N-diisobutyl-N-[(1,3-thiazol-5-ylmethoxy)carbonyl]-L-phenylalaninamide] | 2 | 77
O=C(N[C@@H](Cc1ccccc1)C(=O)N(Cc1ccccc1)Cc1ccccc1)OCc1cncs1 [N,N-dibenzyl-N-[(1,3-thiazol-5-ylmethoxy)carbonyl]-L-phenylalaninamide] | 1.9 | 78
O=C(NC(Cc1ccccc1)C(=O)N(CCc1ccccc1)Cc1ccccc1)OCc1cncs1 [N-benzyl-N-(2-phenylethyl)-N-[(1,3-thiazol-5-ylmethoxy)carbonyl]-L-phenylalaninamide] | 1.8 | 83
